The structures appear in SMILES notation.

The test system of assay [1] is Metrazol seizure threshold. The experiment in a line: Timed intravenous infusion of Metrazol (iv Met) in mouse. The format is in vivo. The conditions noted are these: FIG. 1, p<0.001. The method, then:
The iv-Met test provides a measure of a test substance's ability to raise or lower seizure threshold. Two doses of the test compound are usually employed in this test, the MES ED50 and the TD50 determined following ip quantification testing in mice. Randomly selected mice are injected intraperitoneally 2 minutes apart with either the vehicle or the two test drug doses, maintaining the same order of dosing until 30 mice have been injected. At the previously determined TPE, 0.5% heparinized Metrazol solution is infused at a constant rate of 0.34 ml/min into a lateral tail vein of an unrestrained mouse. Infusion is by means of a Sage syringe pump (model 341 A) and a 10 ml B-D plastic syringe connected to a length of No 20 P.E. tubing. A 27 gauge stainless steel needle with the hub removed is connected to the tubing and inserted into a vein, bevel side up and secured to the tail by a narrow piece of adhesive tape. For the placement of the needle, the mouse is restrained in a cone shaped device with only the tail exposed. […] The time in seconds from the start of the infusion to the appearance of the “first twitch” and the onset of sustained clonus is recorded. The times to each endpoint are converted to mg/kg of Metrazol for each mouse as follows: The mean and standard error for each of the 3 groups and the significance of the difference between the test groups and the control are calculated.

The subject of assay [2] is mechanical allodynia. Description: Sciatic ligation model in rats (neuropathic pain). The format is in vivo, rat. The conditions noted are these: 23 mg/kg i.p. From the text: Animals will be anesthetized with sodium pentobarbital and the depth of anesthesia monitored by their response to a tail pinch and observation of the depth of respiration. Sterile technique will be used throughout the surgery. The upper thigh will be shaved and wiped off with ethanol and betadine. A small incision will then be made in the skin. The underlying muscle of the upper thigh will be separated and the sciatic nerve exposed. The nerve is separated from the surrounding connective tissue and slightly elevated by a pair of fine, curved forceps. Approximately ⅓ to ½ of the nerve is tied off by passing a needle (7.0) and nylon suture through the nerve. The muscle and skin incision are closed off separately with 5.0 suture and the animals kept warm until they have recovered from the anesthesia. […] The rats will be closely monitored daily for the development of infection or untoward effects of the surgery in which case the animals will be immediately euthanized. […] After 30-60 minutes in which to acclimate, a baseline mechanical sensitivity is determined. […] This is repeated until a 50% threshold for withdrawal can be determined. […] Testing will be conducted at the time-to-peak effect of the AED as determined in the acute seizure model (Z. Seltzer et al. Pain 43 1990, 205-218).

Assay [3] deals with mechanical allodynia. Description: Spinal nerve injury (SNI) model, Von Frey test. The class given is in vivo, rat. The conditions noted are these: 60 mg/kg i.p. From the text: The SNI model of neuropathic pain was developed in rats using the procedure described by Decostered and Woolf, Pain 2000, 87: 149-158. Under isoflurane anesthesia, the skin on the lateral surface of the thigh was incised and a section was made directly through the biceps femoris muscle exposing the sciatic nerve and its three terminal branches: the sural, common peroneal and tibial nerves. The common peroneal and the tibial nerves were tight-ligated with 6-0 suture and sectioned distal to the ligation, removing 2-4 mm of the distal nerve stump. Extreme care was taken to avoid any contact with or stretching of the intact sural nerve. Following surgery, hemostasis was confirmed and the muscles were sutured in layers using 4-0 suture and the skin was closed with 4-0 suture and metal clips. Male, Sprague-Dawley rats were used. Testing of compounds was done 21 days post-operatively. After initial basal readings were taken, the test compound or vehicle was administered. The readings were taken again 30, 60 and 180 min after the compound/vehicle administration. Both the control (uninjured) and the SNI paw were tested. The presence of mechanical allodynia was assessed using the Dynamic Plantar Aesthesiometer (Ugo Basile, Italy) which is a modified version of the Von Frey Hair test. […] A single reading was taken per time point. […]

With `C[C@@H](Oc1cc(Cl)cc(C(F)(F)F)c1)C(N)=O` [I(D), (2R)-2-[3-chloro-5-(trifluoromethyl)-phenoxy]propanamide], the “seizure threshold (time to twitch, time to clonus, total dose of pentylenetetrazol to first twitch or clonus)” value in assay [1] was “elevate seizure threshold”. For `NC(=O)COc1cc(C(F)(F)F)cc(C(F)(F)F)c1` [I(F), 2-[3,5 bis(trifluoromethyl)-phenoxy]acetamide;], the “mechanical allodynia compared to vehicle controls” value in the assay on mechanical allodynia [2] is reported as “significant decrease”. Further, the “mechanical allodynia in the denervated paw, Von Frey test” value with mechanical allodynia [3] was “effective”.

These data come from patent US10604476B2, “Fluorinated amide derivatives and their uses as therapeutic agents” (Trillium Therapeutics Inc., priority 2015, dated 2020).
